Results from PubChem BioAssay AID1918999 (Molecular Pharmacology Branch, DTP, NCI, 2023).

System: 556581-035-R-J1-PDC complex spheroid growth
Test: Anticancer human tumor 556581-035-R-J1-PDC patient-derived ovarian carcinoma cell line growth inhibition [AhR]
Settings: for IC50: curve of first compound; for viability, T/C: stronger effect = lower value
Procedure, shortened: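 Agents were dosed in half-log steps down from roughly clinical Cmax, or from 10 microM where Cmax was unknown, alone and with AhR antagonists. Read-out: percent test/control growth of tumor spheroids containing HUVEC and MSC stromal cells.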

[1] = second compound 0.1 µM, first compound 0.0316 µM
[2] = second compound 0.1 µM, first compound 0.1 µM
[3] = second compound 0.1 µM, first compound 0.316 µM
[4] = second compound 0.1 µM, first compound 1 µM
[5] = second compound 0.1 µM, first compound 3.16 µM
[6] = second compound 0.1 µM, first compound 10 µM
[7] = second compound 0.316 µM, first compound 0.0316 µM
[8] = second compound 0.316 µM, first compound 0.1 µM
[9] = second compound 0.316 µM, first compound 0.316 µM
[10] = second compound 0.316 µM, first compound 1 µM
[11] = second compound 0.316 µM, first compound 3.16 µM
[12] = second compound 0.316 µM, first compound 10 µM
[13] = second compound 1 µM, first compound 0.0316 µM
[14] = second compound 1 µM, first compound 0.1 µM
[15] = second compound 1 µM, first compound 0.316 µM
[16] = second compound 1 µM, first compound 1 µM
[17] = second compound 1 µM, first compound 3.16 µM
[18] = second compound 1 µM, first compound 10 µM
[19] = second compound 3.16 µM, first compound 0.0316 µM
[20] = second compound 3.16 µM, first compound 0.1 µM
[21] = second compound 3.16 µM, first compound 0.316 µM
[22] = second compound 3.16 µM, first compound 1 µM
[23] = second compound 3.16 µM, first compound 3.16 µM
[24] = second compound 3.16 µM, first compound 10 µM
[25] = second compound 10 µM, first compound 0.0316 µM
[26] = second compound 10 µM, first compound 0.1 µM
[27] = second compound 10 µM, first compound 0.316 µM
[28] = second compound 10 µM, first compound 1 µM
[29] = second compound 10 µM, first compound 3.16 µM
[30] = second compound 10 µM, first compound 10 µM
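For viability, T/C in this document: compound exposure lasted 7 days; 100% = DMSO vehicle control growth.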

## COc1cc(Nc2ncc3c(n2)-c2ccc(Cl)cc2C(c2c(F)cccc2OC)=NC3)ccc1C(=O)O + Cc1cncc(-c2nc(NCCc3c[nH]c4ccccc34)c3ncn(C(C)C)c3n2)c1
Second compound 0.1 µM
  IC50: > 10000 nM
Second compound 0.316 µM
  IC50: > 10000 nM
Second compound 1 µM
  IC50: > 10000 nM
Second compound 3.16 µM
  IC50: > 10000 nM
Second compound 10 µM
  IC50: > 10000 nM
[1]
  viability, T/C: 97.2%
[2]
  viability, T/C: 83.4%
[3]
  viability, T/C: 79.5%
[4]
  viability, T/C: 71.2%
[5]
  viability, T/C: 71.1%
[6]
  viability, T/C: 58.4%
[7]
  viability, T/C: 91.5%
[8]
  viability, T/C: 87.9%
[9]
  viability, T/C: 72.5%
[10]
  viability, T/C: 76.8%
[11]
  viability, T/C: 62.1%
[12]
  viability, T/C: 62.3%
[13]
  viability, T/C: 84.9%
[14]
  viability, T/C: 81.9%
[15]
  viability, T/C: 78.7%
[16]
  viability, T/C: 72.6%
[17]
  viability, T/C: 67.8%
[18]
  viability, T/C: 65.9%
[19]
  viability, T/C: 86.2%
[20]
  viability, T/C: 76.9%
[21]
  viability, T/C: 77.2%
[22]
  viability, T/C: 73.2%
[23]
  viability, T/C: 72.8%
[24]
  viability, T/C: 65.9%
[25]
  viability, T/C: 89.4%
[26]
  viability, T/C: 74.1%
[27]
  viability, T/C: 78.1%
[28]
  viability, T/C: 70.7%
[29]
  viability, T/C: 71%
[30]
  viability, T/C: 75.2%

## NS(=O)(=O)OCC1CC(n2ccc3c(NC4CCc5ccccc54)ncnc32)CC1O (stereo not given) + Cc1cncc(-c2nc(NCCc3c[nH]c4ccccc34)c3ncn(C(C)C)c3n2)c1
Second compound 0.1 µM
  IC50: > 10000 nM
Second compound 0.316 µM
  IC50: > 10000 nM
Second compound 1 µM
  IC50: > 10000 nM
Second compound 3.16 µM
  IC50: > 10000 nM
Second compound 10 µM
  IC50: 2670 nM
[1]
  viability, T/C: 109%
[2]
  viability, T/C: 102%
[3]
  viability, T/C: 95.9%
[4]
  viability, T/C: 90.5%
[5]
  viability, T/C: 81.1%
[6]
  viability, T/C: 62.5%
[7]
  viability, T/C: 98.1%
[8]
  viability, T/C: 104%
[9]
  viability, T/C: 92.7%
[10]
  viability, T/C: 85.8%
[11]
  viability, T/C: 72.7%
[12]
  viability, T/C: 62.2%
[13]
  viability, T/C: 112%
[14]
  viability, T/C: 120%
[15]
  viability, T/C: 87.7%
[16]
  viability, T/C: 81.6%
[17]
  viability, T/C: 74%
[18]
  viability, T/C: 63.8%
[19]
  viability, T/C: 99.9%
[20]
  viability, T/C: 119%
[21]
  viability, T/C: 96.4%
[22]
  viability, T/C: 84.8%
[23]
  viability, T/C: 70.5%
[24]
  viability, T/C: 49.5%
[25]
  viability, T/C: 87.8%
[26]
  viability, T/C: 95.5%
[27]
  viability, T/C: 71.9%
[28]
  viability, T/C: 71%
[29]
  viability, T/C: 45.6%
[30]
  viability, T/C: 27.6%

## O=C(C=Cc1cccc(S(=O)(=O)Nc2ccccc2)c1)NO + Cc1cncc(-c2nc(NCCc3c[nH]c4ccccc34)c3ncn(C(C)C)c3n2)c1
Second compound 0.1 µM
  IC50: 1480 nM
Second compound 0.316 µM
  IC50: 1680 nM
Second compound 1 µM
  IC50: 1420 nM
Second compound 3.16 µM
  IC50: 1460 nM
Second compound 10 µM
  IC50: 938 nM
[1]
  viability, T/C: 106%
[2]
  viability, T/C: 118%
[3]
  viability, T/C: 90.2%
[4]
  viability, T/C: 58%
[5]
  viability, T/C: 32%
[6]
  viability, T/C: 3.96%
[7]
  viability, T/C: 102%
[8]
  viability, T/C: 104%
[9]
  viability, T/C: 87.3%
[10]
  viability, T/C: 69.6%
[11]
  viability, T/C: 27.9%
[12]
  viability, T/C: 3.92%
[13]
  viability, T/C: 111%
[14]
  viability, T/C: 114%
[15]
  viability, T/C: 82.2%
[16]
  viability, T/C: 60.9%
[17]
  viability, T/C: 28.9%
[18]
  viability, T/C: 5.09%
[19]
  viability, T/C: 108%
[20]
  viability, T/C: 101%
[21]
  viability, T/C: 87%
[22]
  viability, T/C: 62.5%
[23]
  viability, T/C: 26.9%
[24]
  viability, T/C: 6.45%
[25]
  viability, T/C: 92.2%
[26]
  viability, T/C: 88.8%
[27]
  viability, T/C: 80.1%
[28]
  viability, T/C: 43.5%
[29]
  viability, T/C: 24.8%
[30]
  viability, T/C: 4.13%
